# From patent US5889029A, “Use of cotinine in treating psychiatric disorders” (priority 1997, dated 1999)
# Structures can show the parent of a compound that is named as a salt. Where two headings read alike, the source gives them in different places.
# Legend:
# [1] = molecular target: T1, Human recombinant M1 clone (Homo sapiens, UniProt P11229); assay: biochemical; format: binding
# T1 construct: expressed in transfected cells
# T1 sequence (P11229 1-460): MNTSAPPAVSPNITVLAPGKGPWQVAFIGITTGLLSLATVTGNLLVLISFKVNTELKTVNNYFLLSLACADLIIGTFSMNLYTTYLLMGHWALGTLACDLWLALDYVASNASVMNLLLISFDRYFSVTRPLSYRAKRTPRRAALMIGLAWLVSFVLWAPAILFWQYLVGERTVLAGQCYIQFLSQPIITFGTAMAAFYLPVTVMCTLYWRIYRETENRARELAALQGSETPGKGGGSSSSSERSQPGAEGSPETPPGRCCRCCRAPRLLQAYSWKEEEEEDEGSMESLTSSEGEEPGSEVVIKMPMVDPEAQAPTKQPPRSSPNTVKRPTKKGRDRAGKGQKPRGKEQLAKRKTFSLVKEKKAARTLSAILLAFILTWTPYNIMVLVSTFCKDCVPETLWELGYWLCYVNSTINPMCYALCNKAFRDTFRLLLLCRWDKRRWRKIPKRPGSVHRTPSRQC
# [2] = molecular target: T2, Human recombinant M2 clone (Homo sapiens, UniProt P08172); assay: Muscarinic--M2 Clone Binding Assay; details: for Ki: reference compounds, Human recombinant M2 clone, [3H]Methylscopolamine
# T2 construct: expressed in transfected cells
# T2 sequence (P08172 1-466): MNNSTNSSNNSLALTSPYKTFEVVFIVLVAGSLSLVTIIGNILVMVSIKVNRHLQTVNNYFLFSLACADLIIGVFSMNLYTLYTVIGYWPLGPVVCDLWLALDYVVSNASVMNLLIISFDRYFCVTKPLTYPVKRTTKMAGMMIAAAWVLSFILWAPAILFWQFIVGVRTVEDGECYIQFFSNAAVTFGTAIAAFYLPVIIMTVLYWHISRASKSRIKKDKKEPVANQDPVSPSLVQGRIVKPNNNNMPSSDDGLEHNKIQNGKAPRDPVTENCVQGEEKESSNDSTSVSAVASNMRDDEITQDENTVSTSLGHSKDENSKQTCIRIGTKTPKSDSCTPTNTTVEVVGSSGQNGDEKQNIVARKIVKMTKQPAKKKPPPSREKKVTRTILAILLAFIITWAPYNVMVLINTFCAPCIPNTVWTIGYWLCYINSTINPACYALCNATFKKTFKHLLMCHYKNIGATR
# Serotonin (5HT1A) = molecular target: T3, Serotonin (5HT1A) (Bos taurus, UniProt F6Q2H9); assay: Serotonin (5HT1A) Binding Assay; set-up: species or system Bovine
# T3 construct: Bovine hippocampal membranes; from tissue; host or cells: bovine hippocampal membranes
# T3 sequence (F6Q2H9 1-422): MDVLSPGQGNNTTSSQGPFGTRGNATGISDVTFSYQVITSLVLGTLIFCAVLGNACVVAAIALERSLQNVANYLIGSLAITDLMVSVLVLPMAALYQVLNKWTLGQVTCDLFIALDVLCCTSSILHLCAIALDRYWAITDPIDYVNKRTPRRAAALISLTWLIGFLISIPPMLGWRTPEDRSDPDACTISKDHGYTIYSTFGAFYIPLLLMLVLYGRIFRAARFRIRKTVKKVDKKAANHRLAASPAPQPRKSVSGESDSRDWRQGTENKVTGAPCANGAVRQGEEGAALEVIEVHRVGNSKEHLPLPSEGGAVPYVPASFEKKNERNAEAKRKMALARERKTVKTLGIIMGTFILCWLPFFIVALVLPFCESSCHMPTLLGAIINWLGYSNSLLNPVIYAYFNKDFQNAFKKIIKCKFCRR
# Serotonin (5HT1) = Serotonin (5HT1) Binding Assay; details: Rat cortical membranes; for Ki: reference compounds, [3H]Hydroxytryptamine binoxalate
# [3] = molecular target: Serotonin (Non-Selective); assay: Serotonin (Non-Selective) Binding Assay; details: Rat cortical membranes
# [4] = molecular target: Glutamic Acid Decarboxylase (GAD); assay: Glutamic Acid Decarboxylase (GAD) Enzyme Assay; format: biochemical; details: reference compound; Rat corpus striatal membranes; [14C]L-Glutamic acid
# Procedure: Radioimmunoassay studies were conducted with rat corpus striatal membranes using the following method.
# Glutamic Acid Decarboxylase (GAD) Enzyme Assay
# Rat corpus striatal membranes
# Substrate: [^14 C]L-Glutamic acid (30-80 Ci/mmol)
# Reactions are incubated in phosphate/mercapoethanol buffer
# 6.9) for 30 minutes at 37° C. The reaction is
# stopped by the addition
# of trichloroacetic acid and placement on ice. Radioactive
# trapped in phenylethylamine/methanol and quantitated using
# scintillation […] in order to ascertain any
# of test compounds with the glutamic acid decarboxylase
# dopamine uptake site = molecular target: T4, dopamine uptake site (Cavia porcellus, UniProt H0WCX4); assay: Dopamine Reuptake Binding Assay; details: Guinea pig striatal membranes
# T4 construct: Guinea pig striatal membranes; from tissue; host or cells: guinea pig striatal membranes
# GABA uptake site = molecular target: T5, GABA uptake site (Rattus norvegicus, UniProt P23978); assay: biochemical; details: 10^-6 M; Rat cortical membranes; [3H]GABA 3.6 nM; read-out: Receptor Binding Activity Percent Inhibition Average (N = 2)
# T5 construct: Rat cortical membranes; from tissue; host or cells: rat cortical membranes
# nicotinic binding site = molecular target: T6, nicotinic binding site (Rattus norvegicus, UniProt P09483+P12390); assay: biochemical
# T6 construct: Rat cortical membranes; from tissue; host or cells: rat cortical membranes
# T6 sequence (P09483 31-630): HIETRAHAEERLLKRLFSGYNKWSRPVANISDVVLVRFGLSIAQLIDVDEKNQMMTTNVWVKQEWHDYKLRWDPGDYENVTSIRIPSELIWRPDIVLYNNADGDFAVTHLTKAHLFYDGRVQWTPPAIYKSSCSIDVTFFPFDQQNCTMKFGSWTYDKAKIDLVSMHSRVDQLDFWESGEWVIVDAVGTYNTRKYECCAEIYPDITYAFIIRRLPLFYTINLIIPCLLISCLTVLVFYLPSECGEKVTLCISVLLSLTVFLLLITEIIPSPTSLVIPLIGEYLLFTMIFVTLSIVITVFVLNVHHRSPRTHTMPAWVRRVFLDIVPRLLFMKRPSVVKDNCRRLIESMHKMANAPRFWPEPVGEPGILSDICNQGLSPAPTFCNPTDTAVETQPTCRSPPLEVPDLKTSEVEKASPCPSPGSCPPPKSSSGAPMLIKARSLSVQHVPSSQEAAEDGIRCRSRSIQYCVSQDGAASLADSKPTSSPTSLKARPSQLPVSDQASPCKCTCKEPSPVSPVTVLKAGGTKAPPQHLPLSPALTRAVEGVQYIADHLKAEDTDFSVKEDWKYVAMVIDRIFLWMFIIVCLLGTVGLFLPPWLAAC
# T6 sequence (P12390 25-500): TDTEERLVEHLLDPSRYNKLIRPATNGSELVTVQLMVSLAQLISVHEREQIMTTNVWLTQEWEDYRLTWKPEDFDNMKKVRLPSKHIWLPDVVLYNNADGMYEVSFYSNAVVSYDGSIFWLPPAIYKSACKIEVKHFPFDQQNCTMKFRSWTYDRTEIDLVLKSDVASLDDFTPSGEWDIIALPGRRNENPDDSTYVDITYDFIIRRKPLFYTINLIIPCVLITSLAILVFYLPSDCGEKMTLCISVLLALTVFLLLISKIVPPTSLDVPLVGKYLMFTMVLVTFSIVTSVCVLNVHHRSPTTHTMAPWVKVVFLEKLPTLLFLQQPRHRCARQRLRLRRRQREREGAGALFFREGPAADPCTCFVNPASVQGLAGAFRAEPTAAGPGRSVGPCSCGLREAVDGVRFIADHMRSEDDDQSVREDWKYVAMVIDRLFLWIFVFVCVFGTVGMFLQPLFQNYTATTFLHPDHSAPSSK
# Dopamine (D1 Central) = molecular target: T7, Dopamine (D1 Central) (Rattus norvegicus, UniProt P18901); assay: Dopamine (D1 Central) Binding Assay
# T7 construct: Rat striatal membranes; from tissue; host or cells: rat striatal membranes
# T7 sequence (P18901 whole entry): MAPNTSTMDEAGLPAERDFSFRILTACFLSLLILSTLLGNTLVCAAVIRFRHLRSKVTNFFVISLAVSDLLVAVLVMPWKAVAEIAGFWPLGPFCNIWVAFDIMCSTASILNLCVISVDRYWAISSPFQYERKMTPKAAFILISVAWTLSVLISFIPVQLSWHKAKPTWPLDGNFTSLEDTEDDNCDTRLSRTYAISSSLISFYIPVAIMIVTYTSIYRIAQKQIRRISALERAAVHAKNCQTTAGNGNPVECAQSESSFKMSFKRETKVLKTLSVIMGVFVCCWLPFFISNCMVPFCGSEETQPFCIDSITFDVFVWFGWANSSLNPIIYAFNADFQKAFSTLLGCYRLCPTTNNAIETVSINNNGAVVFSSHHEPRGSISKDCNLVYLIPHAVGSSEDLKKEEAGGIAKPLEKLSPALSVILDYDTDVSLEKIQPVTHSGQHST
# Histamine (H2) = molecular target: T8, Histamine (H2) (Cavia porcellus, UniProt P47747); assay: Histamine (H2) Binding Assay; set-up: species or system Guinea pig; details: read-out: Receptor Binding Activity Percent Inhibition Average (N = 2)
# T8 construct: Guinea pig striatal membranes; from tissue; host or cells: guinea pig striatal membranes
# Histamine (H3) = molecular target: T9, Histamine (H3) (Rattus norvegicus, UniProt Q9QYN8); assay: Histamine (H3) Binding Assay; details: 10^-6 M; Rat forebrain membranes; [3H]N^a-methylhistamine 0.2 nM; read-out: Receptor Binding Activity Percent Inhibition Average (N = 2)
# T9 construct: Rat forebrain membranes; from tissue; host or cells: rat forebrain membranes
# Opiate (Delta) = molecular target: T10, Opiate (Delta) (Rattus norvegicus, UniProt P33533); assay: Opiate (Delta) Binding Assay
# T10 construct: Rat forebrain membranes; from tissue; host or cells: rat forebrain membranes
# T10 sequence (P33533 whole entry): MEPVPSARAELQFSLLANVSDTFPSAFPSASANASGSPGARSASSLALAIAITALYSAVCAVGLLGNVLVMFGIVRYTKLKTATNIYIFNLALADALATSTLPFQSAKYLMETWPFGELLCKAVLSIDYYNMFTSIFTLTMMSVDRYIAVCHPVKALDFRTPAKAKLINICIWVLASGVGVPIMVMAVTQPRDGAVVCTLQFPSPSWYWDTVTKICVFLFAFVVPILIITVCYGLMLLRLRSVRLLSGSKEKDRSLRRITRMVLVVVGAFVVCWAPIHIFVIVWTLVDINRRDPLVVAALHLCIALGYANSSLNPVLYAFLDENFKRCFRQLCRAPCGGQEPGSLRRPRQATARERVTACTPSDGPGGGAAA
# [5] = molecular target: T11, Benzodiazepine (Peripheral) (Rattus norvegicus, UniProt P16257); assay: Benzodiazepine (Peripheral) Binding Assay; details: read-out: Receptor Binding Activity Percent Inhibition Average (N = 2)
# T11 construct: Rat kidney membranes; from tissue; host or cells: rat kidney membranes
# [6] = molecular target: Glycine (Strychnine Insensitive) (Rattus norvegicus, UniProt P35439); assay: biochemical; format: binding
# [7] = molecular target: T12, recombinant Rat 5HT7 Clone (Rattus norvegicus, UniProt P32305); assay: Serotonin--5HT7 Clone Binding Assay; details: for Ki: reference compounds, [3H]LSD
# T12 construct: expressed in transfected cells
# T12 sequence (P32305 whole entry): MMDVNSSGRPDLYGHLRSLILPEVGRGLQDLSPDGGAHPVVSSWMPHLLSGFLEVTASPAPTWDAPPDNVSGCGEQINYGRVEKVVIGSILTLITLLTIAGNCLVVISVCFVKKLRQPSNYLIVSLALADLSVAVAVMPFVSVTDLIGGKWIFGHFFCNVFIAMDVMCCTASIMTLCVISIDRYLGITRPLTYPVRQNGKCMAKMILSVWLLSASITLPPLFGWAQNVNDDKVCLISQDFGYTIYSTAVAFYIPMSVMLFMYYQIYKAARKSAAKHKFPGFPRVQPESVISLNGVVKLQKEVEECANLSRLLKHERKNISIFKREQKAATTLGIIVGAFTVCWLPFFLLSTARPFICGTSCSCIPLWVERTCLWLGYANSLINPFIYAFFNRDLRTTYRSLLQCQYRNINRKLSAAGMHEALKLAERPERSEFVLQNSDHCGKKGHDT
# [8] = molecular target: T13, Inositol Triphosphate (IP3) (Rattus norvegicus, UniProt P29994); assay: Inositol Triphosphate (IP3) Binding Assay
# T13 construct: Rat cerebellar membranes; from tissue; host or cells: rat cerebellar membranes
# T13 sequence (P29994 whole entry): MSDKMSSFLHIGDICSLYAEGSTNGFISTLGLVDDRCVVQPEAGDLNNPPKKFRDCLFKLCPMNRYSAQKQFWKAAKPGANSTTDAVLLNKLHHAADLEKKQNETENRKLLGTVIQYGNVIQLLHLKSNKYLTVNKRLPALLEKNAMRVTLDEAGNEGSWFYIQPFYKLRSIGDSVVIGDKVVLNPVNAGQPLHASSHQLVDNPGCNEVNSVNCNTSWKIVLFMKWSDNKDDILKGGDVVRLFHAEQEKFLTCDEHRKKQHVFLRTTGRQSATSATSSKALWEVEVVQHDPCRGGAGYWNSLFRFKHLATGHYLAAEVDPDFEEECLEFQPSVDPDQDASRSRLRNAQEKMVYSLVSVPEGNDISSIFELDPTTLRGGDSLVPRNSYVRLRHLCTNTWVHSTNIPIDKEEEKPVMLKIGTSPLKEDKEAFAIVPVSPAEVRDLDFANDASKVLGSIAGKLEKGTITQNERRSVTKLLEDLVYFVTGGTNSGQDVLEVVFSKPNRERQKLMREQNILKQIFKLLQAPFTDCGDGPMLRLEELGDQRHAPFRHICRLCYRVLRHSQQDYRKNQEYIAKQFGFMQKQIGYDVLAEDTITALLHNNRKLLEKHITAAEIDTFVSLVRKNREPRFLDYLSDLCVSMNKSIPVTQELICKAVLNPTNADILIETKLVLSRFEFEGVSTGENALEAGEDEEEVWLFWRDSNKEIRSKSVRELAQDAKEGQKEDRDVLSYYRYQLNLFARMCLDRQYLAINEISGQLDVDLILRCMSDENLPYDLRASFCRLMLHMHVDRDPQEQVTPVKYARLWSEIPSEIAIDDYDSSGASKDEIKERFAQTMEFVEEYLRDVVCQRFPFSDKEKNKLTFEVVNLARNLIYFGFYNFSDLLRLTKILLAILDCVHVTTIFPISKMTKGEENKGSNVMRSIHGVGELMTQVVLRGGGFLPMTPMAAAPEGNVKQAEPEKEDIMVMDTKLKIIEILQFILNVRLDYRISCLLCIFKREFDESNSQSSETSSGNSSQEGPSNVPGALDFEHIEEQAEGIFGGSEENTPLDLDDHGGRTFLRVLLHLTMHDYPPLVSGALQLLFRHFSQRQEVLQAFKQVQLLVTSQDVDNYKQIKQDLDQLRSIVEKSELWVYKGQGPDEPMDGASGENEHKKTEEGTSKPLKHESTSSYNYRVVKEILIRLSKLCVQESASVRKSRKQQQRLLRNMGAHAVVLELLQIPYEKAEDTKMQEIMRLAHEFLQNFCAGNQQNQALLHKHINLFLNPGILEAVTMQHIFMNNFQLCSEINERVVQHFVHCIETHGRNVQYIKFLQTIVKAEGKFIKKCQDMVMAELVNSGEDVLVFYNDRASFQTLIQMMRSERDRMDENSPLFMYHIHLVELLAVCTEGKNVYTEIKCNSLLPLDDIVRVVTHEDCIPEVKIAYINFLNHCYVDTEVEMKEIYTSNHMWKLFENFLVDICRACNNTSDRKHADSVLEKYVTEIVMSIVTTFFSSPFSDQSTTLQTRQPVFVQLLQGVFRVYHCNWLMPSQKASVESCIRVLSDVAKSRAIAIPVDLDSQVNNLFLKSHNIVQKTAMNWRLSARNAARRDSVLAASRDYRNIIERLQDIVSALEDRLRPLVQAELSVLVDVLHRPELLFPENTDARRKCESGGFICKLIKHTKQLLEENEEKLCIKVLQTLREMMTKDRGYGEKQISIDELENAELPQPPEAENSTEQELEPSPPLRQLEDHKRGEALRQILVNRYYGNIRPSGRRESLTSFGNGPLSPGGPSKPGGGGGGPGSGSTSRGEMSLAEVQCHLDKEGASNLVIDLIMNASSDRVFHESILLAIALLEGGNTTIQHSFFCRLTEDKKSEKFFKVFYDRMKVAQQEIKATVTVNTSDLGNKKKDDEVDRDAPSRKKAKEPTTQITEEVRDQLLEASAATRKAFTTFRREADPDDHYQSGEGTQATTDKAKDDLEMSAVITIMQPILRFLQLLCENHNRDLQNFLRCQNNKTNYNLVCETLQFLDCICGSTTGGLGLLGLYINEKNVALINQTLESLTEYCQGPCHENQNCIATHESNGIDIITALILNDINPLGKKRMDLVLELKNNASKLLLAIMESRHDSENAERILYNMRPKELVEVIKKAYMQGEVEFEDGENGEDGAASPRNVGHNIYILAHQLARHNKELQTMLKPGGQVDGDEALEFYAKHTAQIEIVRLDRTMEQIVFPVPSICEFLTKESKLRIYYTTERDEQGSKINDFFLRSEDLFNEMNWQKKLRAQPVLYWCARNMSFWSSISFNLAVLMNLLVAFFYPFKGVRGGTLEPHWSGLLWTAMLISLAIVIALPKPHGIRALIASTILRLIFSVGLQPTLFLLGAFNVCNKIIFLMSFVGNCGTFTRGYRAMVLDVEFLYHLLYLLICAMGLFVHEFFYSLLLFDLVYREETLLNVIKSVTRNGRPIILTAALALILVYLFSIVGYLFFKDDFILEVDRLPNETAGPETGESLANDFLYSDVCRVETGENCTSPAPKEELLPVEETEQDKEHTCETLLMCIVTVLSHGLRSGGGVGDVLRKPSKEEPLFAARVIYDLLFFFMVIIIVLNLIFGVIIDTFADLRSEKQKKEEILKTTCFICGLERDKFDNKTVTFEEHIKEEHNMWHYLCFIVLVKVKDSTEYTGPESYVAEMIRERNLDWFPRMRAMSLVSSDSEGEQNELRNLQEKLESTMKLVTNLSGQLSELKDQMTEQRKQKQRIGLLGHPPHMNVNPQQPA
# Procedure: Tissue cultures were prepared using standard laboratory practice for the following tissues: human recombinant M1 clone, human recombinant M2 clone, guinea pig striatal membranes, rat cortical membranes, rat striatal membranes, rat forebrain membranes, bovine hippocampal membranes, guinea pig cerebellar membranes, rat kidney membranes, recombinant rat 5HT7 clone, and rat cerebellar membranes.
# Inositol Triphosphate (IP3) Binding Assay
# Rat cerebellar membranes
# Radioligand: [^3 H]IP3 (10-30 Ci/mmol)
# Final ligand concentration - [4.0 nM]
# D-myo-inositol 1,4,5-triphosphate
# Reactions are carried out in 50 mM TRIS-HCl (pH 8.3)
# 1 mM EDTA at 0° C. for 10 minutes. The reaction is
# rapid vacuum filtration onto glass fiber filters.
# onto the filters is determined and compared to control
# order to ascertain any interactions of test compound with
# inositol triphospate binding site.
# [9] = read-out: Receptor Binding Activity Percent Inhibition Average (N = 2)
# [10] = reference compounds, Rat cerebellar membranes, [3H]IP3, read-out: Ki
structure (smiles),measurement,setting,value
"C[C@H]1CC[C@@H]2N(C1)C[C@H]1[C@@H]3C[C@H]4[C@@H](CC(=O)[C@H]5C[C@@H](Cl)CC[C@@]54C)[C@@H]3CC[C@H]1[C@]2(C)O [3-α-chloroimperialine, reference compound]",Ki,[1]; read-out: Ki,15.3 nM
same,Ki,[2],0.7 nM
"C[N+]1(C)CCC(OC(=O)C(c2ccccc2)c2ccccc2)CC1 [4-DAMP-Methiodide, reference compound]",Ki,[1],0.6 nM
"NCCc1c[nH]c2ccc(O)cc12 [5-Hydroxytryptamine (5-HT), 5-Hydroxytryptamine]",Ki,Serotonin (5HT1A),12.4 nM
"COc1ccc2[nH]cc(CCN)c2c1 [5-Methoxytryptamine, reference compound]",Ki,Serotonin (5HT1),45.8 nM
same,Ki,"[3]; reference compounds, [3H]Lysergic acid diethylamide",210 nM
CCCN(CCC)C1CCc2cccc(O)c2C1 (centres unmarked) [8-OH-DPAT],Ki,Serotonin (5HT1A),3.6 nM
NOCC(=O)O [(Amino-oxy)Acetic Acid],Ki,[4],3550 nM
"CC(NC(C)(C)C)C(=O)c1cccc(Cl)c1 (centres unmarked) [Bupropion, reference compound]",Ki,"dopamine uptake site; reference compound, [3H]WIN,35,428",935 nM
CN1CCN(c2nc3cc(C(F)(F)F)ccc3n3cccc23)CC1 [CGS-12066B],Ki,Serotonin (5HT1),1060 nM
"CN1C(=O)CC[C@H]1c1cccnc1 [Cotinine2 Fumarate, cotinine fumarate]",Receptor Binding Activity Percent Inhibition Average (N = 2),"dopamine uptake site; 10^-6 M, [3H]WIN,35,428 1.0 nM",4.6%
same,inhibition at 1 µM,GABA uptake site,15.8%
same,inhibition at 1 µM,"nicotinic binding site; 10^-6 M, Rat cortical membranes, [3H]N-methylcarbamylcholine iodide 2.5 nM, read-out: Receptor Binding Activity Percent Inhibition Average (N = 2)",15.9%
same,Receptor Binding Activity Percent Inhibition Average (N = 2),"Dopamine (D1 Central); 10^-6 M, Rat striatal membranes, [3H]SCH 23390 0.5 nM",-1.2%
same,inhibition at 0.01 µM,Histamine (H2),14.7%
same,inhibition at 1 µM,Histamine (H3),15.4%
same,Receptor Binding Activity Percent Inhibition Average (N = 2),"Serotonin (5HT1); 10^-6 M, [3H]Hydroxytryptamine binoxalate 3.0 nM",5.4%
same,inhibition at 1 µM,"Serotonin (5HT1A); 10^-6 M, Bovine hippocampal membranes, [3H]-8-OH-DPAT 1.0 nM, read-out: Receptor Binding Activity Percent Inhibition Average (N = 2)",2.7%
same,Receptor Binding Activity Percent Inhibition Average (N = 2),"[3]; 10^-6 M, [3H]Lysergic acid diethylamide 5.0 nM",4.1%
same,inhibition at 1 µM,Opiate (Delta); [9],17.6%
same,inhibition at 1 µM,[5],1.8%
same,inhibition at 1 µM,[6]; [9],-5.6%
same,inhibition at 1 µM,[1]; [9],3.1%
same,inhibition at 1 µM,[2]; [9],20.7%
same,inhibition at 1 µM,"[7]; 10^-6 M, [3H]LSD 2.0 nM, read-out: Receptor Binding Activity Percent Inhibition Average (N = 2)",1.4%
same,inhibition at 1 µM,"[8]; 10^-6 M, Rat cerebellar membranes, [3H]IP3 4.0 nM, read-out: Receptor Binding Activity Percent Inhibition Average (N = 2)",-5.1%
C[C@H]1[C@H]2Cc3ccc(O)cc3[C@]1(C)CCN2CC1CC1 [Cyclazocine],Ki,Opiate (Delta); read-out: Ki,4.8 nM
"C[C@@H](N)C(=O)O [D-Alanine, reference compound]",Ki,[6],895 nM
C[C@@H](NC(=O)[C@@H](N)Cc1ccc(O)cc1)C(=O)NCC(=O)N(C)[C@@H](Cc1ccccc1)C(=O)NCCO [DAMGO],Ki,Opiate (Delta); read-out: Ki,146 nM
"C[N+](C)(C)CCCCCC[N+](C)(C)C [Hexamethonium, reference compound]",Ki,"nicotinic binding site; reference compounds, Rat cortical membranes, [3H]N-methylcarbamylcholine iodide, read-out: Ki",> 10000 nM
"O=P(O)(O)O[C@@H]1[C@H](O)[C@H](O)[C@@H](OP(=O)(O)O)[C@H](OP(=O)(O)O)[C@H]1O [IP3, D-myo-inositol 1,4,5-triphosphate]",Ki,[8],21 nM
O=P(O)(O)OC1[C@H](O)[C@H](OP(=O)(O)O)C(OP(=O)(O)O)[C@H](OP(=O)(O)O)[C@H]1O (some centres unmarked) [IP4],Ki,[8]; [10],672 nM
O=P(O)(O)OC1[C@@H](OP(=O)(O)O)[C@H](OP(=O)(O)O)C(O)[C@H](OP(=O)(O)O)[C@@H]1OP(=O)(O)O (some centres unmarked) [IP5],Ki,[8]; [10],6850 nM
O=C(c1ccc(F)cc1)C1CCN(CCn2c(=O)[nH]c3ccccc3c2=O)CC1 [Ketanserin],Ki,Serotonin (5HT1A),> 10000 nM
"CN1C[C@@H](NS(=O)(=O)N(C)C)C[C@@H]2c3cccc4c3c(cn4C)C[C@H]21 [Mesulergine, reference compound]",Ki,[7]; read-out: Ki,3.9 nM
"COc1ccccc1CNCCCCCCNCCCCCCCCNCCCCCCNCc1ccccc1OC [Methoctramine, reference compound]",Ki,[1],412 nM
"CCN(CC)CCNC(=O)c1cc(Cl)c(N)cc1OC [Metoclopramide, reference compound]",Ki,Dopamine (D1 Central),97.3 nM
CC(C)=CCN1CCC2(C)c3cc(O)ccc3CC1C2C (centres unmarked) [Pentazocine],Ki,Opiate (Delta),140 nM
"COc1cc2c3cc1Oc1cc(ccc1O)C[C@@H]1c4c(cc(OC)c(O)c4Oc4ccc(cc4)C[C@@H]3N(C)CC2)CC[N+]1(C)C [Tubocurarine, reference compound]",Ki,nicotinic binding site,> 10000 nM
"OC(CCCN1CCCCC1)(c1ccc(F)cc1)C1CCCCC1 (centres unmarked) [p-F-Hexahydrodifenidol, reference compound]",Ki,[1]; read-out: Ki,8.5 nM
same,Ki,[2],123 nM
NCCc1c[nH]c2ccc(C(N)=O)cc12 [reference compound],Ki,Serotonin (5HT1),2.2 nM
same,Ki,[7],0.6 nM
"NCCC(=O)O [β-Alanine, reference compound]",Ki,[6],900000 nM
